How the values were obtained:
[1] = Circular dichroism, secondary structure of sCT, sCT-SMCC and sCT-BP; assay type: physicochemical; conditions: 20 mM acetate buffer pH 5.0, 400 μg/mL sCT or equivalent
Protocol: For a more detailed analysis of the influence of BP coupling on secondary structural confirmation of sCT, the circular dichroism (CD) spectrum of sCT, sCT-SMCC and sCT-BP was measured in the 20 mM acetate buffer pH 5.0. CD spectra were obtained with a ConvCD spectrophotometer instrument. Spectra were acquired over a wavelength range of 190 to 260 nm. The N2 flow rate was set at 5 l/min. The sample cuvette was cleaned with 20 mM Sodium Acetate buffer pH 5, and the spectra of test samples, which comprised of 400 μg/mL of sCT or equivalent the same buffer, were recorded with the corresponding buffer serving as blanks.

[2] = Effect on plasma calcium level in normal rats (SMCC series); assay type: in vivo, rat; conditions: 20 IU sCT/kg equivalent, subcutaneous
Protocol: (§1) Pharmacodynamic response of sCT analogue was evaluated by analyzing plasma calcium concentration in the rat model. Sprague Dawley female rats weighing 230-260 g (about 6 weeks old) were purchased from Charles River, USA and housed at the University of Alberta Animal Holding Unit. All experimental protocols were approved by the Animals Ethics Committee of the University of Alberta. The rats were divided randomly into five groups of 3 animals each and the pharmacodynamic response was assessed following subcutaneous administration of the sCT or analogue equivalent to 20 IU sCT/kg body weight. Rats were anesthetized using Isoflurane inhalation anesthesia and the 200 μl blood samples were obtained in heparinized Eppendorf microtubes before drug injection. Then 100 μl of sCT or equivalent dose in 20 mM Sodium Acetate buffer pH 5 was sub cu injected and the blood samples were collected 1, 2, 3 and 4 hrs post injection from jugular vein. Blood plasma was obtained by centrifuging the samples at 5000 rpm for 10 min and collecting the supernatant. Plasma calcium level was assayed by QuantiChrom™ Calcium Assay Kit (BioAssay Systems, CA USA) and the plasma phosphate level was assayed by QuantiChrom™ Phosphate Assay Kit (BioAssay Systems, CA USA).

[3] = Effect on plasma phosphate level in normal rats (SMCC series); assay type: in vivo, rat; conditions: 20 IU sCT/kg equivalent, subcutaneous
Protocol: as §1

[4] = first hour, vs acetate buffer controls

Substance | secondary structure by CD spectrum [1] | percentage of plasma calcium reduction ([2]; 4 hour post dosing) | percentage of plasma calcium reduction [2, 4] | percentage of plasma calcium reduction ([2]; second hour) | percentage of plasma calcium reduction ([2]; third hour) | percentage of plasma phosphate reduction ([3]; 4 hour post dosing) | percentage of plasma phosphate reduction [3, 4] | percentage of plasma phosphate reduction ([3]; second hour)
sCT-BP: sCT-SMCC coupled with Thiol-BP (thiol bisphosphonate); mixture of sCT-2SMCC-1BP to sCT-3SMCC-3BP | strong 6-helical character | 27.36±2.28% | 13.45±1.64% | 12.47±5.09% | 26.62±5.28% | 8.54±5.11% | 7.65±4.73% | 12.47±5.09%
sCT-SMCC: sCT reacted with sulfo-SMCC: mono-, di- and tri-substituted thiol reactive sCT intermediates | increased peak intensity at 222 nm | 28.05±2.08% | 15.27±2.35% | 19.43±2.32% | 24.48±2.83% | 10.4±0.54% | 9.18±1.87% | 12.18±2.03%

From patent publication US8772235B2, “Compounds having peptides conjugated to bone targeting moieties and methods of making and using thereof” (The Governors of the University of Alberta, priority 2009, dated 2014)
